Data published in ChEMBL document CHEMBL1201862, “PubChem BioAssay data set” (2004).
Calls of active or inactive are those of the source.

Assays:
[1] = target: Cytochrome P450 2D6 (Homo sapiens, UniProt P10635);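 note: CYP2D6 member of a cytochrome P450 panel assay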
[2] = target: Cytochrome P450 3A4 (Homo sapiens, UniProt P08684);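 note: CYP3A4 tested as one member of a cytochrome P450 panel screen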
[3] = target: Cytochrome P450 2C19 (Homo sapiens, UniProt P33261); experiment: Cytochrome panel assay with activity outcomes. Panel member name: p450-cyp2c19 Compounds with AC50 equal or less than 10 uM are considered active; assay type: functional; settings: read-out: AC50
Cytochrome P450 2C19, sequence (P33261 whole entry): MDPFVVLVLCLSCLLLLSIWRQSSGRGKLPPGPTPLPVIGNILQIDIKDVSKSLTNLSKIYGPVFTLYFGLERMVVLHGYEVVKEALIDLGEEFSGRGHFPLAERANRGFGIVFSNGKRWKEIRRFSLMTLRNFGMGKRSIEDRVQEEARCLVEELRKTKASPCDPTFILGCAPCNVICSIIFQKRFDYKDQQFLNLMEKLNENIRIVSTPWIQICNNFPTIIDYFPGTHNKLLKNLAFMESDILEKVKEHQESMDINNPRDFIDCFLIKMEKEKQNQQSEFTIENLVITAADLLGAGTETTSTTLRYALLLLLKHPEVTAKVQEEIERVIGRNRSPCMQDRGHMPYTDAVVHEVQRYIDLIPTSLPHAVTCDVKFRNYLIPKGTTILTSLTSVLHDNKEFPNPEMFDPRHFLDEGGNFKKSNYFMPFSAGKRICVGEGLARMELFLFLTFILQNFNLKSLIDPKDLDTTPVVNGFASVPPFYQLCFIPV

[4] = target: Cytochrome P450 2C9 (Homo sapiens, UniProt P11712)
Cytochrome P450 2C9, sequence (P11712 whole entry): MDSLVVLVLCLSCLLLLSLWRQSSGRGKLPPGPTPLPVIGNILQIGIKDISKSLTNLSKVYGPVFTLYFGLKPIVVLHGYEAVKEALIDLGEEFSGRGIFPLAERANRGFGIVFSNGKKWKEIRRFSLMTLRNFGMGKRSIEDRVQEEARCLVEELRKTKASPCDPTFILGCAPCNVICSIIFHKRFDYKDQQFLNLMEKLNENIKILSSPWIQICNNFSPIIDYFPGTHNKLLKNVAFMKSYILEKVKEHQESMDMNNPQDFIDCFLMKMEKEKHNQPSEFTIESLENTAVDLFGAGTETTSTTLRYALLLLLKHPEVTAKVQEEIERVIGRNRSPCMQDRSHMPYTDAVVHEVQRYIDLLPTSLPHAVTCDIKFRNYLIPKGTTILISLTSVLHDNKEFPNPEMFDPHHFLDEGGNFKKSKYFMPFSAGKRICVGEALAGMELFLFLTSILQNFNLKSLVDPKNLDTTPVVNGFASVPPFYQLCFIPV

[5] = viability of uninfected HEp-2 cells – cell-based, HTS, cytotoxicity control for RSV inhibitor project, dose response (AID 2410); assay type: functional; settings: human respiratory syncytial virus
[6] = target: T1, Corticotropin-releasing factor receptor 2/Corticotropin-releasing factor-binding protein (Homo sapiens, UniProt P24387+Q13324); experiment: activators of CRF receptor 2 with binding protein – uHTS hits, confirmation (AID 602473); assay type: functional; settings: read-out: EC50_Mean
T1 sequence (Q13324 whole entry): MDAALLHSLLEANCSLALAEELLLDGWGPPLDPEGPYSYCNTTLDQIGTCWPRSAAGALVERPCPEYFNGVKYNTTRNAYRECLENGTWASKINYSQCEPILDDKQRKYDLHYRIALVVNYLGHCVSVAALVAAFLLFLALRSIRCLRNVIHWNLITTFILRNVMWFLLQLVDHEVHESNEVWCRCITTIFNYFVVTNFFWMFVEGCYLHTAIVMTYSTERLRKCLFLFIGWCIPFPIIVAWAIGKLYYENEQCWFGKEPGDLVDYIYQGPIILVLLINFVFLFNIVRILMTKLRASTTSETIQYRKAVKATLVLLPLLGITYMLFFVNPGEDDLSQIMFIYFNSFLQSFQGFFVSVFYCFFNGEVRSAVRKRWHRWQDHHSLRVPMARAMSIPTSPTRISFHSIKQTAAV
T1 sequence (P24387 whole entry): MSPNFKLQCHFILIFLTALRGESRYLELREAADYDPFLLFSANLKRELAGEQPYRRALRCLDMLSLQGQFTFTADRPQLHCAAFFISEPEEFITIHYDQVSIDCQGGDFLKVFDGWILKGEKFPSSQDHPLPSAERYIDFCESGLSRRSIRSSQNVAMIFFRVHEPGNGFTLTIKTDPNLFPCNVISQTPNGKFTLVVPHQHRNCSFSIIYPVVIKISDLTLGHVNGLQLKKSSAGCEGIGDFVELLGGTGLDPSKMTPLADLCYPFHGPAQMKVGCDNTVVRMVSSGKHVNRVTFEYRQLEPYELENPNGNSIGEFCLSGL

[7] = target: T1, Corticotropin-releasing factor receptor 2/Corticotropin-releasing factor-binding protein; experiment: Dose Response confirmation of uHTS hits for small molecule antagonists of the CRF-binding protein and CRF-R2 receptor complex.; assay type: functional; settings: read-out: IC50_Mean
[8] = target: T2, Heat shock factor protein 1 (Mus musculus, UniProt P38532); experiment: decrease of HSF1-responsive luciferase luminescence – cell-based, NIH3T3, dose retest, confirmation (AID 2382); assay type: functional;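 note: NIH3T3 fibroblasts with HSF1-driven luciferase reporter stressed by proteasome inhibitor MG132; luminescence from HSF1-driven luciferase expression after 8 hours of MG132 stress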
T2 sequence (P38532 whole entry): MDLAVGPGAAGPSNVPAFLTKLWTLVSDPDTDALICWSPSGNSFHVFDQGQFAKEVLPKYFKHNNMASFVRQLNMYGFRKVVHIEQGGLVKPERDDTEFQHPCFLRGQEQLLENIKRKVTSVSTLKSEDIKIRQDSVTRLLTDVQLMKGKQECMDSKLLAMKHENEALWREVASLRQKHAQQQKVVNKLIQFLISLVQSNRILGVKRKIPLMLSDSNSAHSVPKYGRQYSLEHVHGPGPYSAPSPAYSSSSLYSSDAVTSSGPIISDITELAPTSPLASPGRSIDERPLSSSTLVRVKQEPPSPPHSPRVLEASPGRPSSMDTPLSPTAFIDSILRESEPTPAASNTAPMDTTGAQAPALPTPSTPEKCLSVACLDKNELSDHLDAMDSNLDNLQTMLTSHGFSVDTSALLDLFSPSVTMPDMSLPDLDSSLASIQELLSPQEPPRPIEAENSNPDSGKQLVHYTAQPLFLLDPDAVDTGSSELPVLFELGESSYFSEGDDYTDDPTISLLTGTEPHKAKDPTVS

[9] = tested on: Streptococcus; experiment: GAS UMAA2166 growth inhibition – luminescence, BacTiterGlo, counter-screen for streptokinase expression inhibitor project, dose response (AID 1915); assay type: functional, organism-based;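 note: potency for reduction of bacterial viability or growth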
[10] = tested on: Streptococcus sp. 'group A'; experiment: Streptococcus pyogenes SK(-)GAS viability under kanamycin – luminescence, BacTiterGlo, confirmation, counter-screen for streptokinase expression inhibitor project, dose response (AID 1900); assay type: functional, organism-based
[11] = target: T3, Streptokinase A (Streptococcus pyogenes serotype M1, UniProt P10520); experiment: viability-normalized secreted streptokinase activity reduction – plasminogen activation absorbance, OD405, dose response (AID 1914); assay type: functional, Streptococcus pyogenes M1 GAS;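 note: secreted streptokinase activity via plasminogen activation per viability signal from cell pellet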
T3 sequence (P10520 whole entry): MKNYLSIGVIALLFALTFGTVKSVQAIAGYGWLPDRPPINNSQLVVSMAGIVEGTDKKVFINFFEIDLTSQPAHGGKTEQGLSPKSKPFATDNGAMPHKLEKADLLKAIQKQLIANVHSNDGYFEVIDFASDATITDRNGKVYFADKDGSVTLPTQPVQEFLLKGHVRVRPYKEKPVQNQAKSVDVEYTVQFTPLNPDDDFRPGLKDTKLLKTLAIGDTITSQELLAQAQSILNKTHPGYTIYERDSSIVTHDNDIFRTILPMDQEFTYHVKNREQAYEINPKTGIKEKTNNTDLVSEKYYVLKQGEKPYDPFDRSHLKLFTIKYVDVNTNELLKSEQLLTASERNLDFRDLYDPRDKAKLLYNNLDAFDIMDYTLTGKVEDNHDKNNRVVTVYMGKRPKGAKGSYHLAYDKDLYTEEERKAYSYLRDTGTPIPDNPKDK

[12] = reduction of Shn3 3'UTR-driven luciferase in osteoblasts – cell-based, Clone20 osteoblasts, firefly luciferase, cherry-picked, dose response (AID 624132); assay type: functional;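 note: firefly luciferase luminescence from reporter carrying the Shn3 3'UTR in osteoblasts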

Cytochrome P450 3A4, sequence (P08684 whole entry): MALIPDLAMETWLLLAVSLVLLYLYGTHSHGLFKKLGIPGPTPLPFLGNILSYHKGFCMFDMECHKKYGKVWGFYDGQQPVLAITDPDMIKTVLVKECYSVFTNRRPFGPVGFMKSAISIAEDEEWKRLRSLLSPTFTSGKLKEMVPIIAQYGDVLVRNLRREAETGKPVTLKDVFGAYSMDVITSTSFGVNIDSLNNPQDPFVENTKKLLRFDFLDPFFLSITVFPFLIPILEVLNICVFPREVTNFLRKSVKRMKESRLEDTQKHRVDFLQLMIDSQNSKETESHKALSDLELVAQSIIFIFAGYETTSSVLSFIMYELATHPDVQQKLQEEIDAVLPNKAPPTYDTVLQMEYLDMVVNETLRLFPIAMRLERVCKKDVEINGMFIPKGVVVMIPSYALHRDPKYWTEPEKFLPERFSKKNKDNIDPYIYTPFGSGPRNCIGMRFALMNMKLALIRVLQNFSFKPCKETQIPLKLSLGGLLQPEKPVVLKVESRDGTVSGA
Cytochrome P450 2D6, sequence (P10635 whole entry): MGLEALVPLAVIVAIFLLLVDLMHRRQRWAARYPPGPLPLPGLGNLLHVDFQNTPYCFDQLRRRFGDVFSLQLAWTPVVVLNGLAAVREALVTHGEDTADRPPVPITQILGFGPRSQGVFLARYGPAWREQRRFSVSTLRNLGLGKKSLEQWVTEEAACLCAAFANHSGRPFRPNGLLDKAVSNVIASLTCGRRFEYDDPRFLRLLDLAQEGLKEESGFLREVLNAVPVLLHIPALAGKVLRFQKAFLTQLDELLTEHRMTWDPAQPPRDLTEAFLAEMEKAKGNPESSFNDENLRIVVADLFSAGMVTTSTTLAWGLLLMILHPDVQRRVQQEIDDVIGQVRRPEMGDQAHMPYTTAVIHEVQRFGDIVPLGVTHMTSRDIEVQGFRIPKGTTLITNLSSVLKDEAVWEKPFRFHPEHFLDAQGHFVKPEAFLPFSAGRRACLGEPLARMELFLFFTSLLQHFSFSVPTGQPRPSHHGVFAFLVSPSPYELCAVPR

## OCCNc1nc(SCc2ccccc2)nc2sc3c(c12)CCC3
[1]
  AC50: 25.1 µM (inconclusive)

## O=C(Oc1ccccc1)N1CCC2(CCCN(Cc3ccccc3)C2)CC1
[2]
  AC50: 12.6 µM (inconclusive)
[1]
  AC50: 10 µM (inconclusive)

## CCCC(c1cc(C(C)(C)C)c(O)cc1C)c1cc(C(C)(C)C)c(O)cc1C
[3]
  AC50: 6.31 µM (inconclusive)
[4]
  AC50: 3.16 µM (inconclusive)
[1]
  AC50: 3.98 µM (inconclusive)

## Cc1c(OCC(=O)NCC(O)c2ccccc2)ccc2c3c(c(=O)oc12)CCCC3 (stereo unspecified)
[5]
  CC50: 48.5 µM (active)

## CS(=O)(=O)Nc1cccc(-c2ccc3ncnc(Nc4ccc(F)cc4)c3c2)c1
[1]
  AC50: 39.8 µM (inconclusive)

## Cc1ccc(C(=O)OCn2nnc3ccccc3c2=O)cc1[N+](=O)[O-]
[6]
  EC50: > 53 µM (inactive)
[7]
  IC50: > 47.1 µM (inactive)

## COc1ccc(CN(CCCN2CCOCC2)C(=O)Nc2cccc(Cl)c2)cc1OC
[8]
  EC50: > 195 µM (not active)

## Cc1ccc(N2CC(C(=O)Nc3nc4ccc(S(C)(=O)=O)cc4s3)CC2=O)cc1 (stereo unspecified)
[8]
  EC50: > 195 µM (not active)

## Cc1cccc(C)c1OCC(=O)NCc1ccccc1
[8]
  EC50: > 195 µM (not active)

## COc1ccc2[nH]cc(CCNc3cc(-c4cccc(C#N)c4)ncn3)c2c1
[1]
  AC50: 20 µM (inconclusive)

## CC(C)(C)c1cc(NCc2ccccn2)n2ncc(-c3ccc(Cl)cc3)c2n1
[9]
  EC50: 3.1 µM (active)
[10]
  EC50: 2.44 µM (active)
[11]
  EC50: > 150 µM (not active)

## N#C/C(=C\Nc1ccc2c[nH]nc2c1)c1nc(-c2ccccc2)cs1
[8]
  EC50: > 195 µM (not active)

## c1ccc2c(NCCN3CCOCC3)nc(-c3ccoc3)nc2c1
[2]
  AC50: 15.8 µM (inconclusive)
[1]
  AC50: 25.1 µM (inconclusive)

## CCC1(C)Cc2c(sc3nc(SC)nc(S)c23)CO1 (stereo unspecified)
[9]
  EC50: > 150 µM (not active)
[10]
  EC50: 1.84 µM (active)
[11]
  EC50: > 150 µM (not active)

## CC(=O)Nc1ccc(NC(=O)COc2ccc([N+](=O)[O-])cc2)cc1
[6]
  EC50: > 53 µM (inactive)
[7]
  IC50: > 47.1 µM (inactive)

## CC(N1CCOC1=O)S(=O)(=O)c1ccccc1 (stereo unspecified)
[8]
  EC50: > 195 µM (not active)

## CCN(CC)C(=O)C1CCCN(c2ccc([N+](=O)[O-])cc2[N+](=O)[O-])C1 (stereo unspecified)
[12]
  AC50: 52.4 µM (active)

## CC(NC(=O)COC(=O)c1ccc2c(=O)n3c(nc2c1)CCCCC3)c1ccccc1 (stereo unspecified)
[6]
  EC50: > 53 µM (inactive)
[7]
  IC50: > 47.1 µM (inactive)

## COC(=O)c1ccc(C(NC(=O)c2ccco2)[C@]2(C)C[C@H]2C2CCCCC2)cc1 (stereo partly specified)
[1]
  AC50: 12.6 µM (inconclusive)

## CCN(CC)S(=O)(=O)c1cccc(NC(=O)CCNC(=O)NC23CC4CC(CC(C4)C2)C3)c1
[8]
  EC50: > 195 µM (not active)

## COc1ccc(S(=O)(=O)N(C)CC(=O)NC2CCCCC2)cc1OC
[6]
  EC50: > 53 µM (inactive)
[7]
  IC50: > 47.1 µM (inactive)

## COc1ccc(CCNC(=O)CN(c2ccc(OC)c(OC)c2)S(C)(=O)=O)cc1OC
[8]
  EC50: > 195 µM (not active)

## CC(C)(C)NC(=O)/C(=C/c1ccccc1F)NC(=O)c1ccc([N+](=O)[O-])cc1
[6]
  EC50: > 53 µM (inactive)
[7]
  IC50: > 47.1 µM (inactive)

## CCOC(=O)Nc1ccccc1C(=O)Nc1cc(C)cc(C)c1
[8]
  EC50: > 195 µM (not active)

## Cc1ccc2c(Cl)cc(Cl)c(OCC(=O)NC(C)(C)C)c2n1
[9]
  EC50: > 150 µM (not active)
[10]
  EC50: 12.7 µM (active)
[11]
  EC50: > 150 µM (not active)

## COc1cccc(C(C(=O)Nc2ccc(F)cc2)N(C(=O)Cn2nnc3ccccc32)C2CC2)c1 (stereo unspecified)
[1]
  AC50: 25.1 µM (inconclusive)

## COc1ccccc1-c1nnc(SC2CCc3ccccc3NC2=O)s1 (stereo unspecified)
[8]
  EC50: > 195 µM (not active)

## COc1ccc(N(C)C(=O)CN(C)S(=O)(=O)c2ccc3c(c2)c(=O)n(C)c(=O)n3C)c(OC)c1
[8]
  EC50: 120 µM (active)

## CCN(CC(=O)N1CCCC1)S(=O)(=O)c1ccc(F)cc1
[8]
  EC50: > 195 µM (not active)

## CCn1c(SCC(=O)NC2CCCCC2)nc2c(c1=O)SC(C)C2 (stereo unspecified)
[1]
  AC50: 1.58 µM (inconclusive)

## Cc1ccc(C(=O)Nc2nc3ccccc3n3nnnc23)cc1
[2]
  AC50: 10 µM (inconclusive)
[3]
  AC50: 14.1 µM (inconclusive)
[1]
  AC50: 12.6 µM (inconclusive)

## CC(Oc1ccc(Cl)cc1Cl)C(=O)NC1=NN(c2ccccc2)C(=O)C1 (stereo unspecified)
[9]
  EC50: 6.39 µM (active)
[10]
  EC50: 3.04 µM (active)
[11]
  EC50: 123 µM (inconclusive)

## CSc1cccc(NC(=O)N2CCc3ccc(NC(=O)c4ccccn4)cc3C2)c1
[5]
  CC50: 14.4 µM (active)

## CCOc1ccccc1N1CCN(C(=O)Cc2ccc(S(=O)(=O)N3CCOCC3)s2)CC1
[6]
  EC50: > 53 µM (inactive)
[7]
  IC50: > 47.1 µM (inactive)

## COc1ccc(S(=O)(=O)N2CCN(C(=O)CCCN3C(=O)NC4(CCCC4)C3=O)CC2)cc1
[6]
  EC50: > 53 µM (inactive)
[7]
  IC50: > 47.1 µM (inactive)

## Cc1[nH]c2ccccc2c1C(C[N+](=O)[O-])c1cccs1 (stereo unspecified)
[8]
  EC50: > 195 µM (not active)

## CC(=O)Nc1ccc(S(=O)(=O)NCc2csc(C)n2)cc1
[8]
  EC50: > 195 µM (not active)

## Cc1ccccc1OCCNC(=O)c1ccc2ccccc2n1
[5]
  CC50: 24.5 µM (active)

## COc1ccccc1C(=O)NCCn1cc(SCC(=O)Nc2nnc(C)s2)c2ccccc21
[1]
  AC50: 28.2 µM (inconclusive)

## Cc1ccnn2cc3c(=O)n(C)c(=O)n(C)c3c12
[4]
  AC50: 11.2 µM (inconclusive)
[1]
  AC50: 20 µM (inconclusive)

## CCOC(=O)C1CCCN(C(=O)COC(=O)c2cccs2)C1 (stereo unspecified)
[6]
  EC50: > 53 µM (inactive)
[7]
  IC50: > 47.1 µM (inactive)

## O=C(NC1(C(F)(F)F)C(=O)Nc2c1c(=O)[nH]c(=O)n2Cc1ccccc1)c1ccc(Cl)cc1 (stereo unspecified)
[6]
  EC50: > 53 µM (inactive)
[7]
  IC50: > 47.1 µM (inactive)

## CC1CN(C2CCN(C(=O)c3cccc(Cl)c3)CC2)CC(C)O1 (stereo unspecified)
[3]
  AC50: 5.62 µM (inconclusive)
[1]
  AC50: 0.891 µM (inconclusive)

## CC1CN(S(=O)(=O)c2ccc(C(=O)N3CCc4ccccc43)cc2)CC(C)O1 (stereo unspecified)
[6]
  EC50: > 53 µM (inactive)
[7]
  IC50: > 47.1 µM (inactive)

## COc1ccc(NC(=O)c2nc3nccc(C)n3n2)cc1S(=O)(=O)N1CCOCC1
[6]
  EC50: > 53 µM (inactive)
[7]
  IC50: > 47.1 µM (inactive)

## COc1ccc(CC(=O)N/N=C(\C)c2ccc(Br)s2)cc1
[6]
  EC50: > 53 µM (inactive)
[7]
  IC50: > 47.1 µM (inactive)

## CCCCN1C(=O)C(CC(=O)NCC)S/C1=N/c1ccccc1 (stereo unspecified)
[8]
  EC50: > 195 µM (not active)

## CN1[C@@H]2CC[C@H]1C[C@@H](OC(=O)c1c[nH]c3ccccc13)C2 [TROPISETRON]
[1]
  AC50: 31.6 µM (inconclusive)
